Earlier results as cited in patent US12318470B2, “Agent for dyeing keratinuos material, comprising aminosilicone, a chromophoric compound and an addition product of C1-C6 alkylene oxide(s) to the esters of fatty acids and aromatic alcohols” (Henkel AG & Co. KGaA, priority 2020, dated 2025).

Assays:
[1] = 5% solution in water
[2] = 25° C.

Row | Compound | solubility in water [2] | also measured
1 | O=P([O-])(O)O.[K+] [Potassium dihydrogen phosphate] |  | pH value of solution in water [1]: 4.4
2 | O=C([O-])c1c(Cl)c(Cl)c(Cl)c(Cl)c1-c1c2c(Br)cc(=O)c(Br)c-2oc2c(Br)c(O)cc(Br)c12.O=C([O-])c1c(Cl)c(Cl)c(Cl)c(Cl)c1-c1c2c(Br)cc(=O)c(Br)c-2oc2c(Br)c(O)cc(Br)c12.[Na+].[Na+] [Acid Red 92, disodium salt of 3,4,5,6-tetrachloro-2-(1,4,5,8-tetrabromo-6-hydroxy-3-oxoxanthen-9-yl)benzoic acid] | greater than 10 g/L | 
3 | O=C([O-])C1=NN(c2ccc(S(=O)(=O)[O-])cc2)C(=O)C1N=Nc1ccc(S(=O)(=O)[O-])cc1.[Na+].[Na+].[Na+] (centres unmarked) [Acid Yellow 23, trisodium salt of 4,5-dihydro-5-oxo-1-(4-sulfophenyl)-4-((4-sulfophenyl)azo)-1H-pyrazole-3-carboxylic acid] |  | solubility in water (in words) [2]: readily soluble
4 | Nc1cc(S(=O)(=O)[O-])cc2cc(S(=O)(=O)[O-])c(N=Nc3ccccc3)c(O)c12.[Na+].[Na+] [Acid Red 33, diantrium salt of 5-amino-4-hydroxy-3-(phenylazo)-naphthalene-2,7-disulphonate] | 2500 µg/mL | 
5 | O=S(=O)([O-])c1ccc(N=Nc2c(O)ccc3ccccc23)cc1.[Na+] [Acid Orange 7, sodium salt of 4-[(2-hydroxy-1-naphthyl)azo]benzene sulphonate] | more than 7 g/L | 
